Test results taken from PubChem BioAssay AID2060894 (Molecular Pharmacology Branch, DTP, NCI, 2025).

System: K12877-001-R-J1-PDC complex spheroid viability
Experiment: Anticancer human tumor K12877-001-R-J1-PDC patient-derived lung adenocarcinoma cell line growth inhibition [RAS]
Details: for IC50: curve of first compound; for viability, T/C: stronger effect = lower value
Excerpt: RAS pathway inhibitors in Combinations in Complex Spheroids
A high-throughput screen of multi-cell type tumor spheroids was designed to identify active combinations of RAS pathway inhibitors and targeted small molecules. Complex spheroids include a stromal component modeled by human endothelial cells (HUVEC) and fibroblasts modeled by human mesenchymal stem cells (MSCs). The concentration ranges selected for each drug and investigational agent were based upon clinically achievable concentrations if the clinical Cmax of the agent was known.
Compounds. The drugs and investigational agents: abemaciclib (NSC768073), cobimetinib (NSC768068), divarasib (GDC6063, NSC841802), docetaxel (NSC628503), GDC-1971 (RLY-1971, NSC841576), gemcitabine (NSC613327), inavolisib (NSC800729), ipatasertib (NSC767898), KB-0742 (NSC834161), MRTX-1133 (NSC836407), osimertinib (NSC779217), RMC-4630 (NSC839698), RMC-6236 (NSC851965), RMC-6291 (NSC852671), Ro-3306 (NSC812927), sapanisertib (NSC764658), SN-38 (NSC673596), staurosporine (NSC755774), SY5609 (NSC837396), and tovorafenib (DAY101, NSC766906), were obtained from the National Cancer Institute (NCI) Developmental Therapeutics Program Chemical Repository. The FDA-approved anticancer drug set is available from the NCI Developmental Therapeutics Program. […] The stock solutions were prepared in dimethyl sulfoxide (DMSO, Sigma-Aldrich, St. Louis, MO, cat. D2650) at 800-fold the tested concentration and stored at -70 degrees C prior to their use. All drugs and investigational agents were tested over a range starting from a high concentration at or near the clinical Cmax and decreasing in half-log increments. If the clinical Cmax for an agent had not been determined, the highest concentration tested was 10 microM.
Cell Culture. All cells were maintained in an incubator at 37 degrees C and 5% CO2 with 95% humidity. The PDC lines were cultured according to standard operating procedures established by the NCI PDMR. All PDCs were thawed and cultured in Matrigel-coated flasks prepared with a working solution of 1X Ham's F-12 nutrient mix, without supplementation (Invitrogen, Waltham, MA, cat. 11765054), 100 U/mL penicillin-streptomycin (Invitrogen, cat. 15140122), and 2.5% Matrigel (Corning Inc., Corning, NY, cat. 354248) for the first three passages. The 362531-283-R-J2-PDC and 782815-120-R-J1-PDC lines were cultured in 6C/Colon 1B media, which includes advanced DMEM/F-12 (Thermo Fisher Scientific, cat. 12634028), 10 mM HEPES (Thermo Fisher Scientific, cat. 15630080), 1X GlutaMAX supplement (Thermo Fisher Scientific, cat. 35050061), 0.1 mg/mL primocin (InvivoGen, San Diego, CA, cat. ant-pm-2), 10% defined fetal bovine serum, heat inactivated (HyClone Laboratories Inc., Logan, UT, cat. SH30070.03HI), 50% L-WRN conditioned media (ATCC, cat. CRL-3276), 1.25 mM N-Acetyl-L-cysteine (Sigma-Aldrich, cat. A9165), 10 mM nicotinamide (Sigma-Aldrich, cat. N0636), 1X B-27 supplement (Thermo Fisher Scientific, cat. 17504044), 1X N-2 supplement (Thermo Fisher Scientific, cat. 17502048), 50 ng/mL human EGF (Thermo Fisher Scientific, cat. PHG0311), and 10 microM Y-27632 dihydrochloride (Tocris Bioscience, cat. 1254). The K12877-001-R-J1-PDC line was cultured in 6I media, which includes all 6C/Colon 1B media plus 10 ng/mL human FGF-10 (PeproTech, cat. 100-26), 1 ng/mL human FGF-2 (PeproTech, cat. 100-18B), 1 µM prostaglandin E2 (Tocris Bioscience, cat. 2296), […] hydrocortisone (Sigma-Aldrich, cat. H4001), and […] bovine insulin (Sigma-Aldrich, cat. I6634). The K86415-001-R-J1-PDC line was cultured in 6D media, which includes all 6C/Colon 1B media components minus the L-WRN conditioned media. The 485176-168-R4-J1-PDC was cultured in PANC media, which includes all 6C/Colon 1B media plus 100 ng/mL human FGF-10 (PeproTech, cat. 100-26), 500 nM SB-431542 (Selleckchem, cat. S1067), and 10 nM gastrin (Tocris Bioscience, cat. 3006). […]
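Also: spheroids exposed to agents for one week before readout.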

C=CC(=O)Nc1cc(Nc2nccc(-c3cn(C)c4ccccc34)n2)c(OC)cc1N(C)CCN(C)C + C=CC(=O)N1CCN(c2nc(OCC3CCCN3C)nc3c(F)c(-c4nc(N)cc(C)c4C(F)(F)F)c(Cl)cc23)C(C)C1
IC50 (second compound 0.00316 µM): > 1 µM
IC50 (second compound 0.01 µM): > 1 µM
IC50 (second compound 0.0316 µM): > 1 µM
IC50 (second compound 0.1 µM): > 1 µM
IC50 (second compound 0.316 µM): > 1 µM
IC50 (second compound 1 µM): > 1 µM
viability, T/C (second compound 0.00316 µM, first compound 0.00316 µM): 106%
viability, T/C (second compound 0.00316 µM, first compound 0.01 µM): 98.8%
viability, T/C (second compound 0.00316 µM, first compound 0.0316 µM): 98.7%
viability, T/C (second compound 0.00316 µM, first compound 0.1 µM): 100%
viability, T/C (second compound 0.00316 µM, first compound 0.316 µM): 101%
viability, T/C (second compound 0.00316 µM, first compound 1 µM): 83.8%
viability, T/C (second compound 0.01 µM, first compound 0.00316 µM): 104%
viability, T/C (second compound 0.01 µM, first compound 0.01 µM): 95%
viability, T/C (second compound 0.01 µM, first compound 0.0316 µM): 103%
viability, T/C (second compound 0.01 µM, first compound 0.1 µM): 96.2%
viability, T/C (second compound 0.01 µM, first compound 0.316 µM): 92.7%
viability, T/C (second compound 0.01 µM, first compound 1 µM): 82.6%
viability, T/C (second compound 0.0316 µM, first compound 0.00316 µM): 95.8%
viability, T/C (second compound 0.0316 µM, first compound 0.01 µM): 93.1%
viability, T/C (second compound 0.0316 µM, first compound 0.0316 µM): 88.3%
viability, T/C (second compound 0.0316 µM, first compound 0.1 µM): 90.7%
viability, T/C (second compound 0.0316 µM, first compound 0.316 µM): 79.6%
viability, T/C (second compound 0.0316 µM, first compound 1 µM): 80.1%
viability, T/C (second compound 0.1 µM, first compound 0.00316 µM): 93.6%
viability, T/C (second compound 0.1 µM, first compound 0.01 µM): 88.1%
viability, T/C (second compound 0.1 µM, first compound 0.0316 µM): 88.9%
viability, T/C (second compound 0.1 µM, first compound 0.1 µM): 88.1%
viability, T/C (second compound 0.1 µM, first compound 0.316 µM): 76.2%
viability, T/C (second compound 0.1 µM, first compound 1 µM): 70.8%
viability, T/C (second compound 0.316 µM, first compound 0.00316 µM): 90.8%
viability, T/C (second compound 0.316 µM, first compound 0.01 µM): 94.1%
viability, T/C (second compound 0.316 µM, first compound 0.0316 µM): 82.3%
viability, T/C (second compound 0.316 µM, first compound 0.1 µM): 89.1%
viability, T/C (second compound 0.316 µM, first compound 0.316 µM): 79.8%
viability, T/C (second compound 0.316 µM, first compound 1 µM): 72.6%
viability, T/C (second compound 1 µM, first compound 0.00316 µM): 86.5%
viability, T/C (second compound 1 µM, first compound 0.01 µM): 91.8%
viability, T/C (second compound 1 µM, first compound 0.0316 µM): 83.6%
viability, T/C (second compound 1 µM, first compound 0.1 µM): 76.9%
viability, T/C (second compound 1 µM, first compound 0.316 µM): 76.6%
viability, T/C (second compound 1 µM, first compound 1 µM): 73.5%

CC1(C)CCC(Nc2ncc(C(F)(F)F)c(-c3c[nH]c4c(P(C)(C)=O)c(C#N)ccc34)n2)CN1 (centres undefined) + CCn1c(-c2cccnc2C(C)OC)c2c3cc(ccc31)N1CCOC(CC(NC(=O)C(C(C)C)N(C)C(=O)C3(F)CCN(C(=O)C#CC(C)(C)N(C)C)CC3)C(=O)N3CCCC(N3)C(=O)OCC(C)(C)C2)C1
IC50 (second compound 0.000949 µM): 0.0168 µM
IC50 (second compound 0.003 µM): 0.0151 µM
IC50 (second compound 0.00949 µM): 0.0132 µM
IC50 (second compound 0.03 µM): 0.0159 µM
IC50 (second compound 0.0949 µM): 0.0138 µM
IC50 (second compound 0.3 µM): 0.011 µM
viability, T/C (second compound 0.000949 µM, first compound 0.000949 µM): 88.3%
viability, T/C (second compound 0.000949 µM, first compound 0.003 µM): 79%
viability, T/C (second compound 0.000949 µM, first compound 0.00949 µM): 63.7%
viability, T/C (second compound 0.000949 µM, first compound 0.03 µM): 36.4%
viability, T/C (second compound 0.000949 µM, first compound 0.0949 µM): 24.2%
viability, T/C (second compound 0.000949 µM, first compound 0.3 µM): 18.5%
viability, T/C (second compound 0.003 µM, first compound 0.000949 µM): 80.2%
viability, T/C (second compound 0.003 µM, first compound 0.003 µM): 81%
viability, T/C (second compound 0.003 µM, first compound 0.00949 µM): 57.8%
viability, T/C (second compound 0.003 µM, first compound 0.03 µM): 35.9%
viability, T/C (second compound 0.003 µM, first compound 0.0949 µM): 24.9%
viability, T/C (second compound 0.003 µM, first compound 0.3 µM): 18%
viability, T/C (second compound 0.00949 µM, first compound 0.000949 µM): 74.1%
viability, T/C (second compound 0.00949 µM, first compound 0.003 µM): 71.8%
viability, T/C (second compound 0.00949 µM, first compound 0.00949 µM): 55.3%
viability, T/C (second compound 0.00949 µM, first compound 0.03 µM): 35.1%
viability, T/C (second compound 0.00949 µM, first compound 0.0949 µM): 22.7%
viability, T/C (second compound 0.00949 µM, first compound 0.3 µM): 17.1%
viability, T/C (second compound 0.03 µM, first compound 0.000949 µM): 74.7%
viability, T/C (second compound 0.03 µM, first compound 0.003 µM): 73.7%
viability, T/C (second compound 0.03 µM, first compound 0.00949 µM): 63.8%
viability, T/C (second compound 0.03 µM, first compound 0.03 µM): 33%
viability, T/C (second compound 0.03 µM, first compound 0.0949 µM): 20.9%
viability, T/C (second compound 0.03 µM, first compound 0.3 µM): 19%
viability, T/C (second compound 0.0949 µM, first compound 0.000949 µM): 72.8%
viability, T/C (second compound 0.0949 µM, first compound 0.003 µM): 66.1%
viability, T/C (second compound 0.0949 µM, first compound 0.00949 µM): 58.4%
viability, T/C (second compound 0.0949 µM, first compound 0.03 µM): 34.7%
viability, T/C (second compound 0.0949 µM, first compound 0.0949 µM): 21.8%
viability, T/C (second compound 0.0949 µM, first compound 0.3 µM): 18%
viability, T/C (second compound 0.3 µM, first compound 0.000949 µM): 69.1%
viability, T/C (second compound 0.3 µM, first compound 0.003 µM): 63.7%
viability, T/C (second compound 0.3 µM, first compound 0.00949 µM): 53.9%
viability, T/C (second compound 0.3 µM, first compound 0.03 µM): 29.6%
viability, T/C (second compound 0.3 µM, first compound 0.0949 µM): 19%
viability, T/C (second compound 0.3 µM, first compound 0.3 µM): 14.8%
